How the values were obtained:
Assay in all cases: Glasshouse herbicide test, pre- and post-emergence
Type in all cases: in vivo
[1] = test system: Setaria faberi (SETFA); conditions: 250 g/h, evaluated after 13 days, five-point scale; for percentage damage caused to the plant, SETFA POST: post-emergence; for percentage damage caused to the plant, SETFA PRE: pre-emergence
Method: (§1) Seeds of a variety of test species are sown in standard soil in pots (Lolium perenne (LOLPE), Setaria faberi (SETFA), Alopecurus myosuroides (ALOMY), Echinochloa crus-galli (ECHCG), Avena fatua (AVEFA)). After cultivation for one day (pre-emergence) or after 8 days cultivation (post-emergence) under controlled conditions in a glasshouse (at 24/16° C., day/night; 14 hours light; 65% humidity), the plants are sprayed with an aqueous spray solution derived from the formulation of the technical active ingredient in acetone/water (50:50) solution containing 0.5% Tween 20 (polyoxyethelyene sorbitan monolaurate, CAS RN 9005-64-5). Compounds are applied at 250 g/h. The test plants are then grown in a glasshouse under controlled conditions in a glasshouse (at 24/16° C., day/night; 14 hours light; 65% humidity) and watered twice daily. After 13 days for pre and post-emergence, the test is evaluated for the percentage damage caused to the plant. The biological activities are shown in the following table on a five-point scale (5=80-100%; 4=60-79%; 3=40-59%; 2=20-39%; 1=0-19%).

[2] = test system: Echinochloa crus-galli (ECHCG); conditions: 250 g/h, evaluated after 13 days, five-point scale; for percentage damage caused to the plant, ECHCG POST: post-emergence; for percentage damage caused to the plant, ECHCG PRE: pre-emergence
Method: as §1

[3] = test system: Lolium perenne (LOLPE); conditions: 250 g/h, evaluated after 13 days, five-point scale; for percentage damage caused to the plant, LOLPE POST: post-emergence; for percentage damage caused to the plant, LOLPE PRE: pre-emergence
Method: as §1

[4] = test system: Alopecurus myosuroides (ALOMY); conditions: 250 g/h, evaluated after 13 days, five-point scale; for percentage damage caused to the plant, ALOMY POST: post-emergence; for percentage damage caused to the plant, ALOMY PRE: pre-emergence
Method: as §1

[5] = test system: Avena fatua (AVEFA); conditions: 250 g/h, evaluated after 13 days, five-point scale; for percentage damage caused to the plant, AVEFA POST: post-emergence; for percentage damage caused to the plant, AVEFA PRE: pre-emergence
Method: as §1

CC#Cc1cc(C)c(C2C(=O)CC3(CCC(C(=O)NCCOC)CC3)CC2=O)c(C)c1 (centres unmarked) [Compound 1.011]
percentage damage caused to the plant, SETFA POST [1]: 5 (5=80-100%) | percentage damage caused to the plant, SETFA PRE [1]: 5 (5=80-100%) | percentage damage caused to the plant, ECHCG POST [2]: 5 (5=80-100%) | percentage damage caused to the plant, ECHCG PRE [2]: 5 (5=80-100%) | percentage damage caused to the plant, LOLPE POST [3]: 5 (5=80-100%) | percentage damage caused to the plant, LOLPE PRE [3]: 5 (5=80-100%) | percentage damage caused to the plant, ALOMY POST [4]: 5 (5=80-100%) | percentage damage caused to the plant, ALOMY PRE [4]: 5 (5=80-100%) | percentage damage caused to the plant, AVEFA POST [5]: 5 (5=80-100%) | percentage damage caused to the plant, AVEFA PRE [5]: 5 (5=80-100%)

CNC(=O)C1CCC2(CC1)CC(=O)C(c1c(C)cc(-c3ccc(F)cc3)cc1C)C(=O)C2 (centres unmarked) [Compound 1.025]
percentage damage caused to the plant, SETFA POST [1]: 5 (5=80-100%) | percentage damage caused to the plant, SETFA PRE [1]: 5 (5=80-100%) | percentage damage caused to the plant, ECHCG POST [2]: 5 (5=80-100%) | percentage damage caused to the plant, ECHCG PRE [2]: 5 (5=80-100%) | percentage damage caused to the plant, LOLPE POST [3]: 5 (5=80-100%) | percentage damage caused to the plant, LOLPE PRE [3]: 5 (5=80-100%) | percentage damage caused to the plant, ALOMY POST [4]: 5 (5=80-100%) | percentage damage caused to the plant, ALOMY PRE [4]: 5 (5=80-100%) | percentage damage caused to the plant, AVEFA POST [5]: 5 (5=80-100%) | percentage damage caused to the plant, AVEFA PRE [5]: 5 (5=80-100%)

CC#Cc1cc(C)c(C2C(=O)CC3(CCC(NC(=O)CCC#N)CC3)CC2=O)c(C)c1 (centres unmarked) [Compound 2.013]
percentage damage caused to the plant, SETFA POST [1]: 5 (5=80-100%) | percentage damage caused to the plant, SETFA PRE [1]: 5 (5=80-100%) | percentage damage caused to the plant, ECHCG POST [2]: 5 (5=80-100%) | percentage damage caused to the plant, ECHCG PRE [2]: 5 (5=80-100%) | percentage damage caused to the plant, LOLPE POST [3]: 5 (5=80-100%) | percentage damage caused to the plant, LOLPE PRE [3]: 5 (5=80-100%) | percentage damage caused to the plant, ALOMY POST [4]: 5 (5=80-100%) | percentage damage caused to the plant, ALOMY PRE [4]: 3 (3=40-59%) | percentage damage caused to the plant, AVEFA POST [5]: 5 (5=80-100%) | percentage damage caused to the plant, AVEFA PRE [5]: 5 (5=80-100%)

CC#Cc1cc(C)c(C2C(=O)CC3(CCC(NC(=O)C4COCCO4)CC3)CC2=O)c(C)c1 (centres unmarked) [Compound 2.009]
percentage damage caused to the plant, SETFA POST [1]: 5 (5=80-100%) | percentage damage caused to the plant, SETFA PRE [1]: 5 (5=80-100%) | percentage damage caused to the plant, ECHCG POST [2]: 5 (5=80-100%) | percentage damage caused to the plant, ECHCG PRE [2]: 5 (5=80-100%) | percentage damage caused to the plant, LOLPE POST [3]: 5 (5=80-100%) | percentage damage caused to the plant, LOLPE PRE [3]: 5 (5=80-100%) | percentage damage caused to the plant, ALOMY POST [4]: 4 (4=60-79%) | percentage damage caused to the plant, ALOMY PRE [4]: 4 (4=60-79%) | percentage damage caused to the plant, AVEFA POST [5]: 5 (5=80-100%) | percentage damage caused to the plant, AVEFA PRE [5]: 4 (4=60-79%)

CC(=O)NC1CCC2(CC1)CC(=O)C(c1c(C)cc(-c3ncc(F)cc3F)cc1C)C(=O)C2 (centres unmarked) [Compound 2.031]
percentage damage caused to the plant, SETFA POST [1]: 5 (5=80-100%) | percentage damage caused to the plant, SETFA PRE [1]: 5 (5=80-100%) | percentage damage caused to the plant, ECHCG POST [2]: 5 (5=80-100%) | percentage damage caused to the plant, ECHCG PRE [2]: 5 (5=80-100%) | percentage damage caused to the plant, LOLPE POST [3]: 5 (5=80-100%) | percentage damage caused to the plant, LOLPE PRE [3]: 5 (5=80-100%) | percentage damage caused to the plant, ALOMY POST [4]: 5 (5=80-100%) | percentage damage caused to the plant, ALOMY PRE [4]: 5 (5=80-100%) | percentage damage caused to the plant, AVEFA POST [5]: 5 (5=80-100%) | percentage damage caused to the plant, AVEFA PRE [5]: 5 (5=80-100%)

CC#Cc1cc(C)c(C2C(=O)CC3(CCC(NC(C)=O)CC3)CC2=O)c(C)c1 (centres unmarked) [Compound 2.001, N-[3-(2,6-dimethyl-4-prop-1-ynyl-phenyl)-2,4-dioxo-spiro[5.5]undecan-9-yl]acetamide]
percentage damage caused to the plant, SETFA POST [1]: 5 (5=80-100%) | percentage damage caused to the plant, SETFA PRE [1]: 5 (5=80-100%) | percentage damage caused to the plant, ECHCG POST [2]: 5 (5=80-100%) | percentage damage caused to the plant, ECHCG PRE [2]: 5 (5=80-100%) | percentage damage caused to the plant, LOLPE POST [3]: 5 (5=80-100%) | percentage damage caused to the plant, LOLPE PRE [3]: 5 (5=80-100%) | percentage damage caused to the plant, ALOMY POST [4]: 5 (5=80-100%) | percentage damage caused to the plant, ALOMY PRE [4]: 5 (5=80-100%) | percentage damage caused to the plant, AVEFA POST [5]: 5 (5=80-100%) | percentage damage caused to the plant, AVEFA PRE [5]: 5 (5=80-100%)

CC#Cc1cc(C)c(C2C(=O)CC3(CCC(NC(=O)c4ccccn4)CC3)CC2=O)c(C)c1 (centres unmarked) [Compound 2.006]
percentage damage caused to the plant, SETFA POST [1]: 5 (5=80-100%) | percentage damage caused to the plant, SETFA PRE [1]: 5 (5=80-100%) | percentage damage caused to the plant, ECHCG POST [2]: 5 (5=80-100%) | percentage damage caused to the plant, ECHCG PRE [2]: 5 (5=80-100%) | percentage damage caused to the plant, LOLPE POST [3]: 5 (5=80-100%) | percentage damage caused to the plant, LOLPE PRE [3]: 5 (5=80-100%) | percentage damage caused to the plant, ALOMY POST [4]: 5 (5=80-100%) | percentage damage caused to the plant, ALOMY PRE [4]: 5 (5=80-100%) | percentage damage caused to the plant, AVEFA POST [5]: 5 (5=80-100%) | percentage damage caused to the plant, AVEFA PRE [5]: 4 (4=60-79%)

CNC(=O)C1CCC2(CC1)CC(=O)C(c1c(C)cc(-c3ncc(F)cc3F)cc1C)C(=O)C2 (centres unmarked) [Compound 1.023]
percentage damage caused to the plant, SETFA POST [1]: 5 (5=80-100%) | percentage damage caused to the plant, SETFA PRE [1]: 5 (5=80-100%) | percentage damage caused to the plant, ECHCG POST [2]: 5 (5=80-100%) | percentage damage caused to the plant, ECHCG PRE [2]: 5 (5=80-100%) | percentage damage caused to the plant, LOLPE POST [3]: 5 (5=80-100%) | percentage damage caused to the plant, LOLPE PRE [3]: 5 (5=80-100%) | percentage damage caused to the plant, ALOMY POST [4]: 5 (5=80-100%) | percentage damage caused to the plant, ALOMY PRE [4]: 5 (5=80-100%) | percentage damage caused to the plant, AVEFA POST [5]: 5 (5=80-100%) | percentage damage caused to the plant, AVEFA PRE [5]: 5 (5=80-100%)

CC#Cc1cc(C)c(C2C(=O)CC3(CCC(NC(=O)C4CC4)CC3)CC2=O)c(C)c1 (centres unmarked) [Compound 2.004]
percentage damage caused to the plant, SETFA POST [1]: 5 (5=80-100%) | percentage damage caused to the plant, SETFA PRE [1]: 5 (5=80-100%) | percentage damage caused to the plant, ECHCG POST [2]: 5 (5=80-100%) | percentage damage caused to the plant, ECHCG PRE [2]: 5 (5=80-100%) | percentage damage caused to the plant, LOLPE POST [3]: 5 (5=80-100%) | percentage damage caused to the plant, LOLPE PRE [3]: 5 (5=80-100%) | percentage damage caused to the plant, ALOMY POST [4]: 5 (5=80-100%) | percentage damage caused to the plant, ALOMY PRE [4]: 5 (5=80-100%) | percentage damage caused to the plant, AVEFA POST [5]: 5 (5=80-100%) | percentage damage caused to the plant, AVEFA PRE [5]: 5 (5=80-100%)

CC#Cc1cc(C)c(C2C(=O)CC3(CCC(NC(=O)c4ccnc(F)c4)CC3)CC2=O)c(C)c1 (centres unmarked) [Compound 2.018]
percentage damage caused to the plant, SETFA POST [1]: 5 (5=80-100%) | percentage damage caused to the plant, SETFA PRE [1]: 5 (5=80-100%) | percentage damage caused to the plant, ECHCG POST [2]: 5 (5=80-100%) | percentage damage caused to the plant, ECHCG PRE [2]: 5 (5=80-100%) | percentage damage caused to the plant, LOLPE POST [3]: 5 (5=80-100%) | percentage damage caused to the plant, LOLPE PRE [3]: 5 (5=80-100%) | percentage damage caused to the plant, ALOMY POST [4]: 5 (5=80-100%) | percentage damage caused to the plant, ALOMY PRE [4]: 4 (4=60-79%) | percentage damage caused to the plant, AVEFA POST [5]: 5 (5=80-100%) | percentage damage caused to the plant, AVEFA PRE [5]: 5 (5=80-100%)

CC#Cc1cc(C)c(C2C(=O)CC3(CCC(NC(=O)COC(F)F)CC3)CC2=O)c(C)c1 (centres unmarked) [Compound 2.008]
percentage damage caused to the plant, SETFA POST [1]: 5 (5=80-100%) | percentage damage caused to the plant, SETFA PRE [1]: 5 (5=80-100%) | percentage damage caused to the plant, ECHCG POST [2]: 5 (5=80-100%) | percentage damage caused to the plant, ECHCG PRE [2]: 5 (5=80-100%) | percentage damage caused to the plant, LOLPE POST [3]: 5 (5=80-100%) | percentage damage caused to the plant, LOLPE PRE [3]: 5 (5=80-100%) | percentage damage caused to the plant, ALOMY POST [4]: 5 (5=80-100%) | percentage damage caused to the plant, ALOMY PRE [4]: 5 (5=80-100%) | percentage damage caused to the plant, AVEFA POST [5]: 5 (5=80-100%) | percentage damage caused to the plant, AVEFA PRE [5]: 5 (5=80-100%)
